According to ChEMBL document CHEMBL1201862, “PubChem BioAssay data set” (2004):
Activity calls are given as the source filed them.

Assays:
[1] = biological target: Intestinal-type alkaline phosphatase (Homo sapiens, UniProt P09923); experiment: human IAP activators, dose response, biochemical, luminescent, uHTS hits, set 2 (AID 488817); type: functional;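 also: potency of activators that raise enzyme activity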
[2] = Counterscreen for AddAB inhibitors: absorbance-based bacterial cell-based high throughput dose response assay for inhibitors of bacterial viability. [Related pubchem assays (depositor defined):AID435030, AID449728, AID449731, AID488942, AID488955, AID488956]; type: functional
[3] = biological target: T1, Exodeoxyribonuclease V (Escherichia coli (strain K12), UniProt P04993+P07648+P08394); experiment: E. coli RecBCD inhibitors, dose response, counter-screen for AddAB inhibitor project, absorbance, V66 E. coli, mutant T4 phage (AID 492957); type: functional, cell-based, Escherichia coli str. K-12 substr. MG1655
T1 sequence (P04993 whole entry): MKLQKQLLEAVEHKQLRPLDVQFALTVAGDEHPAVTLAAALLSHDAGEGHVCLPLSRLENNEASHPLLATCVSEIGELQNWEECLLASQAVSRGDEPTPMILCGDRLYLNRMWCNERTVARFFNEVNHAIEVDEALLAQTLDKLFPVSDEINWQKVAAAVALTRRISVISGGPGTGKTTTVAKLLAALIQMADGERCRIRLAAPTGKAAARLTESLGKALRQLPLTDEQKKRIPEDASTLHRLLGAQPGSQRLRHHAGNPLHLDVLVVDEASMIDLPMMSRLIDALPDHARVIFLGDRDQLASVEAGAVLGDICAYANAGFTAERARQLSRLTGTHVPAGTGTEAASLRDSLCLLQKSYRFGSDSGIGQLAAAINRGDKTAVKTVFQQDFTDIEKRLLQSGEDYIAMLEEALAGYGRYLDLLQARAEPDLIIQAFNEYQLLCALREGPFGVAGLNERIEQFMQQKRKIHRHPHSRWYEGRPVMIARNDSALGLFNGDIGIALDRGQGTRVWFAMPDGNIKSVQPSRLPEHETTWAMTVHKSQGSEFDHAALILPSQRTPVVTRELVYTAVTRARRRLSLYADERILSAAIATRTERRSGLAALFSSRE
T1 sequence (P07648 whole entry): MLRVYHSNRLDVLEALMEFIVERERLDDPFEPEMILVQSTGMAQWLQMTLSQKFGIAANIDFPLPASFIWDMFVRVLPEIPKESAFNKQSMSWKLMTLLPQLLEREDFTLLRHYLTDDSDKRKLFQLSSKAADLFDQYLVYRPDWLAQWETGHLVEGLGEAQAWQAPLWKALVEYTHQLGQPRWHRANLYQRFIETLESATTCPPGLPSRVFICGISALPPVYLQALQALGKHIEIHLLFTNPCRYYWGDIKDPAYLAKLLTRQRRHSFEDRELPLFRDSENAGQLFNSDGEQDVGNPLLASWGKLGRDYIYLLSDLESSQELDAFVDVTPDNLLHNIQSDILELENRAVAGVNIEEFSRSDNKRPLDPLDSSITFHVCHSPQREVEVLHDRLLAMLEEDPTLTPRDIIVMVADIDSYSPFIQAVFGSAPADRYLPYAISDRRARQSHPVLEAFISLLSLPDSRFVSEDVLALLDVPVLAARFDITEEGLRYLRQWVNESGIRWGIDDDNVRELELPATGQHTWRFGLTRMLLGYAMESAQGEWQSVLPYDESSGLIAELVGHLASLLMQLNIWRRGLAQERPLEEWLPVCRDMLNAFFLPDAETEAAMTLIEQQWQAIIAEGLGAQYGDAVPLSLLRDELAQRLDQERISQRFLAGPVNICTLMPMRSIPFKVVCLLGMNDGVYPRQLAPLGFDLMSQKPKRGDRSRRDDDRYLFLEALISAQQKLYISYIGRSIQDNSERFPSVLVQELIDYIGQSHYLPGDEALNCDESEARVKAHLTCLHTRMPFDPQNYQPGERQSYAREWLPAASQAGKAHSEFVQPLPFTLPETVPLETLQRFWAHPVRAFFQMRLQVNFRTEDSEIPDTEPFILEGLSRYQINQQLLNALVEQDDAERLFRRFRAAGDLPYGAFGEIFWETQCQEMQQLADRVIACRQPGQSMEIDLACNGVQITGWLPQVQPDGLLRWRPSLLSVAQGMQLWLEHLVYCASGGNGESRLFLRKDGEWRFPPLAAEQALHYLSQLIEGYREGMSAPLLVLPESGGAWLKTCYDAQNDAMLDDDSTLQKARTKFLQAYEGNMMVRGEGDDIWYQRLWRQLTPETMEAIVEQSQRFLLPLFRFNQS
T1 sequence (P08394 whole entry): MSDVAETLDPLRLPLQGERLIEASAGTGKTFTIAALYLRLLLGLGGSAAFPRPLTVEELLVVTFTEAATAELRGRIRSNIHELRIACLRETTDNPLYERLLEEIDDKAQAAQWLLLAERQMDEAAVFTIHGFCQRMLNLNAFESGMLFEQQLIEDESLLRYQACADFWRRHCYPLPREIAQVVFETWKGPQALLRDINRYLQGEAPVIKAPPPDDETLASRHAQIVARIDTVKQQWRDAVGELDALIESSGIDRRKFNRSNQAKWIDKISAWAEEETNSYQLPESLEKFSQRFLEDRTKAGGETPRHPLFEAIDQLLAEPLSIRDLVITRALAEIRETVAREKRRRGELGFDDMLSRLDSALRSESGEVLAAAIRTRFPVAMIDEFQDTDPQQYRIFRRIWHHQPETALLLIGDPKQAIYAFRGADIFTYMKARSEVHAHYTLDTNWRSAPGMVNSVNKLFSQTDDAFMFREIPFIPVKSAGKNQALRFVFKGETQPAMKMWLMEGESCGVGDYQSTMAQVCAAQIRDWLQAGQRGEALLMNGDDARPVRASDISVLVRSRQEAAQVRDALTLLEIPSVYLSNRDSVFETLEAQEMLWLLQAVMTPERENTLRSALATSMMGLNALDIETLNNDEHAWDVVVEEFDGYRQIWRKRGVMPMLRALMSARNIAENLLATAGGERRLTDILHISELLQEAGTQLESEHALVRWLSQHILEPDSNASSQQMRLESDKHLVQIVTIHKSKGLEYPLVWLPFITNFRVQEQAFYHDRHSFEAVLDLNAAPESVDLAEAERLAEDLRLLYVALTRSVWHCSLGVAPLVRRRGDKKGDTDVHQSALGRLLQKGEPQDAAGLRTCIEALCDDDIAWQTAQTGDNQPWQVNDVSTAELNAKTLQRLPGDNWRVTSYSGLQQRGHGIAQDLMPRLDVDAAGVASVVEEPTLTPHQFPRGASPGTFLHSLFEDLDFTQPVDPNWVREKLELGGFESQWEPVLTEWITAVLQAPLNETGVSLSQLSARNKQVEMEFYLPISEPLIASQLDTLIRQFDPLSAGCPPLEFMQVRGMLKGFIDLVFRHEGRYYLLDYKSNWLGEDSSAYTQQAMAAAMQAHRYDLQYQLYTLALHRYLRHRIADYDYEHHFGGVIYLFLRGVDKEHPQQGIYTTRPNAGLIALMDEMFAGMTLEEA

[4] = biological target: Polyadenylate-binding protein 1 (Homo sapiens, UniProt P11940); experiment: PABP poly(A) RNA binding inhibitors, primary screen, biochemical, fluorescence polarization, uHTS (AID 2014)
Polyadenylate-binding protein 1, sequence (P11940 whole entry): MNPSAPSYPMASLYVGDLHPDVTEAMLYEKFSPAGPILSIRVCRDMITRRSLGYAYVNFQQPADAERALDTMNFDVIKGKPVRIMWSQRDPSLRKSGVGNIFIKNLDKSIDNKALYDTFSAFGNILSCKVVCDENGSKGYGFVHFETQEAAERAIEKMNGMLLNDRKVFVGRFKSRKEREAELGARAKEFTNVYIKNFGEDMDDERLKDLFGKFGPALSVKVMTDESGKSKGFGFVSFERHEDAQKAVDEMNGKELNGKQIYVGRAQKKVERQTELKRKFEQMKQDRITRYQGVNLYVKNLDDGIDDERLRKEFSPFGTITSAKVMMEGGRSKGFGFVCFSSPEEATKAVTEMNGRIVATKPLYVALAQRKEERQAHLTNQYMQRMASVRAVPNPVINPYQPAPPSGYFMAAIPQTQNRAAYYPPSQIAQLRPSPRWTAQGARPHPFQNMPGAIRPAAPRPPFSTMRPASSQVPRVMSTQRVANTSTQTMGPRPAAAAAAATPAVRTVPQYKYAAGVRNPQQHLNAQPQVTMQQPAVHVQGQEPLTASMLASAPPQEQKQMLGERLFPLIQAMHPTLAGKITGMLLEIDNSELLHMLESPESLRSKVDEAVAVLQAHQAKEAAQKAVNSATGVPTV

Intestinal-type alkaline phosphatase, sequence (P09923 whole entry): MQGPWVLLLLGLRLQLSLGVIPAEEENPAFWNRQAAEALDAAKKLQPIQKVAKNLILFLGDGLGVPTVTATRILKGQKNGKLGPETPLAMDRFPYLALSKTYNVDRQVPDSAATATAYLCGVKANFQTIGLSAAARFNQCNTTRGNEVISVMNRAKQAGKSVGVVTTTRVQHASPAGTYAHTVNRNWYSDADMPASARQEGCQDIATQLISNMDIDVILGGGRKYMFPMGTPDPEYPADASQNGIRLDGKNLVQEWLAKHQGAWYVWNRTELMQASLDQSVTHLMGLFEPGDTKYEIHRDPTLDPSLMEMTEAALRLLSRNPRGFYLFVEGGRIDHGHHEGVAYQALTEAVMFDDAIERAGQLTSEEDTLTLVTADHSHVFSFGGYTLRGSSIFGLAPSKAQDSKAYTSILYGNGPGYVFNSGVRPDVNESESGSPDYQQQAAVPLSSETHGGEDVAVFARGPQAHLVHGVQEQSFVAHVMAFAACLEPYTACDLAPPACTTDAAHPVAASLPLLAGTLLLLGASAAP

Structure (SMILES)	EC50 [1]	IC50 [2]	IC50 [3]	IC50 [4]
O=C(N/N=C/c1ccc(O)cc1O)C(=O)N/N=C/c1ccc(O)cc1O	4.56 µM (active)	> 119 µM (inactive)	> 119 µM (inactive)	> 100 µM (inactive)
Cc1onc(-c2ccccc2)c1C(=O)NC(=S)NNC(=O)c1ccc(O)cc1O		> 39.5 µM (inactive)	> 39.5 µM (inactive)	
